Experiments:
[1] = target: T1, Arp2 (subunit of the Arp2/3 complex) (Homo sapiens, UniProt P61158+P61160); test: TIRF actin branching rate with GST-N-WASP-VCA-activated recombinant Arp2/[…]; also pyrene actin polymerisation; type: biochemical
T1 construct: gene ACTR2; recombinant human Arp2/3 iso-complex containing Arp3/ArpC1A/C5L; with Arp3 (ACTR3, P61158), within the Arp2/3 complex

[2] = target: T2, Arp3 (subunit of the Arp2/3 complex) (Homo sapiens, UniProt P61158); test: as above; type: biochemical
T2 construct: gene ACTR3; recombinant human Arp2/3 iso-complex containing Arp3/ArpC1A/C5L; with Arp2/3 complex (Arp2, ArpC1A, ArpC2, ArpC3, ArpC4, ArpC5L)

IC50 [1] [µM] | IC50 [2] [µM] | Structure (SMILES)
19.9 | – | Cc1[nH]c2ccccc2c1CCNC(=O)c1ccccc1F [CK-666]
– | 0.86 | COc1ccc(N2C(=O)CSC2c2cccc(Br)c2)c(OC)c1 (centres unmarked) [CK-869]

Source: article PMC11316031 (EMBO Reports, 2024)
